# Experimental data published in paper PMC11173485, “Connecting GSK-3β Inhibitory Activity with IKK-β or ROCK-1 Inhibition to Target Tau Aggregation and Neuroinflammation in Alzheimer’s Disease—Discovery, In Vitro and In Cellulo Activity of Thiazole-Based Inhibitors” (Molecules, 2024).
# Tests used:
# Assay in all cases: Eurofins KinaseProfiler radiometric selectivity screen
# Assay type in all cases: biochemical
# [1] = biological target: GSK-3β (Homo sapiens, UniProt P49841); parameters: purchased Eurofins Discovery (KinaseProfiler service)
# Method: (§1) Compound 62 is an ATP-competitive inhibitor of GSK-3β, raising concerns about selectivity. Therefore, we performed a selectivity screening at Eurofins Discovery on the CMGC group of kinases, which included the CDK, DYRK, MAPK, and GSK families (Figure 3 and Table S1 in the SI).
# (§2) Selectivity studies for compound 62
# (§3) Selectivity studies were performed at Eurofins in Kinase Enzymatic Radiometric [Km ATP]
# (§4) Kinase Profiler Lead Hunter Assay. The percentage of enzymatic activity was measured at 1
# (§5) µM of compound 62 in duplicate for 17 selected kinases.
# (§6) Table S1. Inhibitory activity of compound 62 against panel of selected CMGC kinases.
# (§7) kinase % of enzyme activity at 1 μM of compound 62±SD*
# (§8) *Where n = 2, the value reported here is actually range / √ 2 .
# [2] = biological target: T1, CDK1/cyclinB (Homo sapiens, UniProt P06493); conditions: Km ATP, remaining enzyme activity, n = 2
# T1 construct: purchased Eurofins Discovery (KinaseProfiler service)
# Method: as §1, §2, §3, §4, §5, §6, §7, §8
# [3] = biological target: T2, DYRK1B (Homo sapiens, UniProt Q9Y463); conditions: Km ATP, remaining enzyme activity, n = 2
# T2 construct: purchased Eurofins Discovery (KinaseProfiler service)
# Method: as §1, §2, §3, §4, §5, §6, §7, §8
# [4] = biological target: T3, MAPK1 (Homo sapiens, UniProt P27361); conditions: Km ATP, remaining enzyme activity, n = 2
# T3 construct: purchased Eurofins Discovery (KinaseProfiler service)
# Method: as §1, §2, §3, §4, §5, §6, §7, §8
# [5] = biological target: T4, JNK2α2 (Homo sapiens, UniProt P45984); conditions: Km ATP, remaining enzyme activity, n = 2
# T4 construct: purchased Eurofins Discovery (KinaseProfiler service)
# Method: as §1, §2, §3, §4, §5, §6, §7, §8
# [6] = biological target: T5, SAPK3 (Homo sapiens, UniProt P53778); conditions: Km ATP, remaining enzyme activity, n = 2
# T5 construct: purchased Eurofins Discovery (KinaseProfiler service)
# Method: as §1, §2, §3, §4, §5, §6, §7, §8
# [7] = biological target: T6, CDK6/cyclinD3 (Homo sapiens, UniProt Q00534); conditions: Km ATP, remaining enzyme activity, n = 2
# T6 construct: purchased Eurofins Discovery (KinaseProfiler service)
# Method: as §1, §2, §3, §4, §5, §6, §7, §8
# [8] = biological target: T7, SAPK2a(T106M) (Homo sapiens, UniProt Q16539, T106M); conditions: Km ATP, remaining enzyme activity, n = 2
# T7 construct: purchased Eurofins Discovery (KinaseProfiler service)
# Method: as §1, §2, §3, §4, §5, §6, §7, §8
# [9] = biological target: T8, JNK3 (Homo sapiens, UniProt P53779); conditions: Km ATP, remaining enzyme activity, n = 2
# T8 construct: purchased Eurofins Discovery (KinaseProfiler service)
# Method: as §1, §2, §3, §4, §5, §6, §7, §8
# [10] = biological target: T9, CDK2/cyclinA (Homo sapiens, UniProt P24941); conditions: Km ATP, remaining enzyme activity, n = 2
# T9 construct: purchased Eurofins Discovery (KinaseProfiler service)
# Method: as §1, §2, §3, §4, §5, §6, §7, §8
# [11] = biological target: T10, CDK9/cyclin T1 (Homo sapiens, UniProt P50750); conditions: Km ATP, remaining enzyme activity, n = 2
# T10 construct: purchased Eurofins Discovery (KinaseProfiler service)
# Method: as §1, §2, §3, §4, §5, §6, §7, §8
# [12] = biological target: T11, SAPK2b (Homo sapiens, UniProt Q15759); conditions: Km ATP, remaining enzyme activity, n = 2
# T11 construct: purchased Eurofins Discovery (KinaseProfiler service)
# Method: as §1, §2, §3, §4, §5, §6, §7, §8
# [13] = biological target: T12, DYRK1A (Homo sapiens, UniProt Q13627); conditions: Km ATP, remaining enzyme activity, n = 2
# T12 construct: purchased Eurofins Discovery (KinaseProfiler service)
# Method: as §1, §2, §3, §4, §5, §6, §7, §8
# [14] = biological target: T13, GSK-3α (Homo sapiens, UniProt P49840); conditions: Km ATP, remaining enzyme activity, n = 2
# T13 construct: purchased Eurofins Discovery (KinaseProfiler service)
# Method: as §1, §2, §3, §4, §5, §6, §7, §8
# [15] = biological target: T14, CDK4/cyclinD3 (Homo sapiens, UniProt P11802); conditions: Km ATP, remaining enzyme activity, n = 2
# T14 construct: purchased Eurofins Discovery (KinaseProfiler service)
# Method: as §1, §2, §3, §4, §5, §6, §7, §8
# [16] = biological target: T15, CDK7/cyclinH/ MAT1 (Homo sapiens, UniProt P50613); conditions: Km ATP, remaining enzyme activity, n = 2
# T15 construct: purchased Eurofins Discovery (KinaseProfiler service)
# Method: as §1, §2, §3, §4, §5, §6, §7, §8
# [17] = biological target: T16, MAPK2 (Homo sapiens, UniProt P28482); conditions: Km ATP, remaining enzyme activity, n = 2
# T16 construct: purchased Eurofins Discovery (KinaseProfiler service)
# Method: as §1, §2, §3, §4, §5, §6, §7, §8
# Sequence of GSK-3β (P49841 whole entry): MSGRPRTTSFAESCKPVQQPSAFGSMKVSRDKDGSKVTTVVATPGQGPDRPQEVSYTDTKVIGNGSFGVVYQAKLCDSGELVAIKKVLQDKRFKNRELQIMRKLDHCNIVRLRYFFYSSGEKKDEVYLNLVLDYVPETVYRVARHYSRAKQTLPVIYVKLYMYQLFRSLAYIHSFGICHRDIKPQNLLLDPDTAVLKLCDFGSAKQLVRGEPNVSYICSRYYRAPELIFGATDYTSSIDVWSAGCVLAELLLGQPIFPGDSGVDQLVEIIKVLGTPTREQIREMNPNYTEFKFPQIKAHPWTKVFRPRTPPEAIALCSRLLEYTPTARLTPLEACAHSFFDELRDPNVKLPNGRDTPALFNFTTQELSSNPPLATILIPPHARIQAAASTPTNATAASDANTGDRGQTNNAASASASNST
# T7 sequence (Q16539 whole entry T106M): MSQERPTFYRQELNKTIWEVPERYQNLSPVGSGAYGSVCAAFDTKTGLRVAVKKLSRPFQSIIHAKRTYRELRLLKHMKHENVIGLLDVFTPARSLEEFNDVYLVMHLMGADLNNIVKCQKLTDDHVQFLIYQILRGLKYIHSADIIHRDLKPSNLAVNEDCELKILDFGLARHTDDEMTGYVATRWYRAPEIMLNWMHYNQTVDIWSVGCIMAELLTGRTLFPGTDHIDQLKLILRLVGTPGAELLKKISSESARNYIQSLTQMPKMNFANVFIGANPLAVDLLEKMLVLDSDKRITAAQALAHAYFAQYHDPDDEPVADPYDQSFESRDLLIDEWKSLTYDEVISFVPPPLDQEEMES
# T4 sequence (P45984 whole entry): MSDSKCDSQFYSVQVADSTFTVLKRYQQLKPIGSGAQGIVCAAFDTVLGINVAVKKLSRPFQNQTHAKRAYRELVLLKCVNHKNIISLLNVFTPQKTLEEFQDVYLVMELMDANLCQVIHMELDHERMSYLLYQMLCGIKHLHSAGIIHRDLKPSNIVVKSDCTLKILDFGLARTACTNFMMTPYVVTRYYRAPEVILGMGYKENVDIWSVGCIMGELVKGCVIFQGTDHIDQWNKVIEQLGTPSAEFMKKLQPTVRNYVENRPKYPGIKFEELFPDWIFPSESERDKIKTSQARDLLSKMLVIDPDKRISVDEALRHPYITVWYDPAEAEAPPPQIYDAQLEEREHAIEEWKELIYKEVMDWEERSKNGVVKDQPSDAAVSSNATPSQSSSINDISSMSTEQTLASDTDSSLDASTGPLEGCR
# T5 sequence (P53778 whole entry): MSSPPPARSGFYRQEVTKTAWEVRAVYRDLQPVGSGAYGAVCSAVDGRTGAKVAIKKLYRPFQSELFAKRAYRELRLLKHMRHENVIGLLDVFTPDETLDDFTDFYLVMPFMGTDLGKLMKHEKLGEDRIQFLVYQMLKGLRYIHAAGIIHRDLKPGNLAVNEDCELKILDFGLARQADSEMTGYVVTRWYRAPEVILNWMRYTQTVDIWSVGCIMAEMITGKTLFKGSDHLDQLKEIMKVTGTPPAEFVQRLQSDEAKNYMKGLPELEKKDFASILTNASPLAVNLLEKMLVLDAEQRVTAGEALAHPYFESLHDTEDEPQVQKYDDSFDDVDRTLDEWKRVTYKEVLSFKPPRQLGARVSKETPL
# T10 sequence (P50750 whole entry): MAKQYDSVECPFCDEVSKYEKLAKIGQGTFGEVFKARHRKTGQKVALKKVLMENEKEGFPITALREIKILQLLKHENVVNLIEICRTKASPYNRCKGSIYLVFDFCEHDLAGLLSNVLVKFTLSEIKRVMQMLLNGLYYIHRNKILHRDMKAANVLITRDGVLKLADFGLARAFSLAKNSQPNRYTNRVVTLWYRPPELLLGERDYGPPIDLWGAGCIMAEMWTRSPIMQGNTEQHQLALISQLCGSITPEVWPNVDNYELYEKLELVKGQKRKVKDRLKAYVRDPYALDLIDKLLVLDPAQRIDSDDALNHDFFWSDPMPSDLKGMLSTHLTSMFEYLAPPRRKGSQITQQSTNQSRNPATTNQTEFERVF
# T10 sequence (O60563 whole entry partner): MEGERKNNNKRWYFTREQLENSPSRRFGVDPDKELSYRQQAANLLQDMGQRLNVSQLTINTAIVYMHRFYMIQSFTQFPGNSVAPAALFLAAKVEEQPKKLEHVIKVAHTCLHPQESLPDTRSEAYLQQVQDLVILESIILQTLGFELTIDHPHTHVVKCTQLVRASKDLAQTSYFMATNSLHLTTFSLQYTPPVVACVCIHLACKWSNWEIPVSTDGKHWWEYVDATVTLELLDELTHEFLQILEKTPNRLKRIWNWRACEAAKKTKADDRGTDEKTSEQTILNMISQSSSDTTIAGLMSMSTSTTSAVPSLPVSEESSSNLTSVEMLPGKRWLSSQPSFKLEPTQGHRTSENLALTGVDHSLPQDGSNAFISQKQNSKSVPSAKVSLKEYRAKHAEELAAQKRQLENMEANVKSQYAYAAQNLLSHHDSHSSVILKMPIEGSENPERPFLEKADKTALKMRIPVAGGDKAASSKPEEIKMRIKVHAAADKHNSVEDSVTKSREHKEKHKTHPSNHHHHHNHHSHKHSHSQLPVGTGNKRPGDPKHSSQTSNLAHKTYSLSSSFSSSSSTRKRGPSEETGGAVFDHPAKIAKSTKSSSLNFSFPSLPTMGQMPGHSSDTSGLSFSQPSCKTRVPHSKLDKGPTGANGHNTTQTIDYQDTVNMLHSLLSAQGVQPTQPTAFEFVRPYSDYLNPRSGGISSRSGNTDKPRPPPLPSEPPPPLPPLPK
# T16 sequence (P28482 whole entry): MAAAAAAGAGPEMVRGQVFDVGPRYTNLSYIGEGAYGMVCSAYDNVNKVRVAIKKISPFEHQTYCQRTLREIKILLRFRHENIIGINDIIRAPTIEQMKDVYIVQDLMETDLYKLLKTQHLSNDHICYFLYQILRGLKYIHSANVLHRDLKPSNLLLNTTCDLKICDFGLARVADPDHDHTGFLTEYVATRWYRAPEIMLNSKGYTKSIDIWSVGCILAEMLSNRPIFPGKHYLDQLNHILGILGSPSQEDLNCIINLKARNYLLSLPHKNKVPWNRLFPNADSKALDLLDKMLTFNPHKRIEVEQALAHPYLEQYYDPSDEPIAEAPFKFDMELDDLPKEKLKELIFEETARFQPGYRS
# T14 sequence (P11802 whole entry): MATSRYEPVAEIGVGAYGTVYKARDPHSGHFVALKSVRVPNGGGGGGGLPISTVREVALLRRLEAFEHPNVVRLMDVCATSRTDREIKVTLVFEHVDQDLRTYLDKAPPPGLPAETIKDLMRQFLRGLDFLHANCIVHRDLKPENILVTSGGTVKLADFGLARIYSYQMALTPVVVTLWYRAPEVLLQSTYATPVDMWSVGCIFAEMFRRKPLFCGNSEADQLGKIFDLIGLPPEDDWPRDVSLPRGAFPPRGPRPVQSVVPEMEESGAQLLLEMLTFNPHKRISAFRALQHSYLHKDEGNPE
# T14 sequence (P30281 whole entry partner): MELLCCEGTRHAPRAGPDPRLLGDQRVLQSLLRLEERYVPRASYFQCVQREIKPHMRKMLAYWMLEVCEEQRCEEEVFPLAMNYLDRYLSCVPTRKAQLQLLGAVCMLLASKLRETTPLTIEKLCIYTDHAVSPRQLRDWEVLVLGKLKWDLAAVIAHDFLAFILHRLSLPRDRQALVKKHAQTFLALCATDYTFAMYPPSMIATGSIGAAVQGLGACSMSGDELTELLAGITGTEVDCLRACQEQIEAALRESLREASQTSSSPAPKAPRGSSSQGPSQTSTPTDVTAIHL
# T3 sequence (P27361 whole entry): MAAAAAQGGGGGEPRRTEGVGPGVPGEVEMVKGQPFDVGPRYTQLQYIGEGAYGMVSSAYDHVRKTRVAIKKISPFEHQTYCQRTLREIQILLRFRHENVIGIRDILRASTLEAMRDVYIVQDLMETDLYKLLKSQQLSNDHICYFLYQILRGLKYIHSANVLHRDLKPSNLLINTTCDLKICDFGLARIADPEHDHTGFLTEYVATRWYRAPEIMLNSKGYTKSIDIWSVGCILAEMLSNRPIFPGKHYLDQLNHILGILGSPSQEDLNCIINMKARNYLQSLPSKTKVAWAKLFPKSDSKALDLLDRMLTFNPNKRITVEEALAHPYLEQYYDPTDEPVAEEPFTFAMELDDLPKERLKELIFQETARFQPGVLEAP
# T8 sequence (P53779 whole entry): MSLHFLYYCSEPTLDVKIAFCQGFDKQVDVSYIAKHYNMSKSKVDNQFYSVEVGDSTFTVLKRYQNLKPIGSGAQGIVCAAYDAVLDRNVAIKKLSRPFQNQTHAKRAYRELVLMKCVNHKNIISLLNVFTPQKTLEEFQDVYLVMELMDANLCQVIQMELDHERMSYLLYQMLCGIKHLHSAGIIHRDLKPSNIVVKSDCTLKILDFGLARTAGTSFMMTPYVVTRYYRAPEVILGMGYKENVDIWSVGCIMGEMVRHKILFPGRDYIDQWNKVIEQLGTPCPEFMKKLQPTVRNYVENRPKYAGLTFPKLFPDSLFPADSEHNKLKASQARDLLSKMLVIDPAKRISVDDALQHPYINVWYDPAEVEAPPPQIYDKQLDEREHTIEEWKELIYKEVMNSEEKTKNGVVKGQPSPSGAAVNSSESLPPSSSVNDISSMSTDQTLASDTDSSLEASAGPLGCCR
# T11 sequence (Q15759 whole entry): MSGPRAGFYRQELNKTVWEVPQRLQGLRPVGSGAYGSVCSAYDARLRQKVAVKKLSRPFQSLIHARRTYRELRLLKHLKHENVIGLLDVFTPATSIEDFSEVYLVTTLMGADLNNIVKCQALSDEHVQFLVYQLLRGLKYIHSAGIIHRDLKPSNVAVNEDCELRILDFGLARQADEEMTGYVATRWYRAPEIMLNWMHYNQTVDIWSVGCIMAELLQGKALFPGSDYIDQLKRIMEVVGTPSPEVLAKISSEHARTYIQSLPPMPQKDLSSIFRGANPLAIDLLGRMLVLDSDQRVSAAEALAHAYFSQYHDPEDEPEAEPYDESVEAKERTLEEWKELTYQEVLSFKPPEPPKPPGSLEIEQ
structure (smiles),measurement,setting,value
"O=C1NC2(CCOC2)Nc2cc(-c3ccnc(NC(=O)C4CC4)c3)sc21 (stereo not drawn) [Compound 62, N-(4-(4′-Oxo-3′,4,4′,5-tetrahydro-1′H,2H-spiro[furan-3,2′-thieno [3,2-d]pyrimidin]-6′-yl)pyridin-2-yl)cyclopropanecarboxamide]","% of enzyme activity at 1 μM of compound 62±SD, GSK-3β","[1]; Km ATP, remaining enzyme activity, n = 2",1±1%
same,inhibition at 1 µM,[1]; text says GSK family,99%
same,"% of enzyme activity at 1 μM of compound 62±SD, CDK1/cyclinB",[2],33±1%
same,"% of enzyme activity at 1 μM of compound 62±SD, DYRK1B",[3],1±1%
same,"% of enzyme activity at 1 μM of compound 62±SD, MAPK1",[4],37±2%
same,"% of enzyme activity at 1 μM of compound 62±SD, JNK2α2",[5],89±14%
same,"% of enzyme activity at 1 μM of compound 62±SD, SAPK3",[6],22±3%
same,"% of enzyme activity at 1 μM of compound 62±SD, CDK6/cyclinD3",[7],88±0%
same,"% of enzyme activity at 1 μM of compound 62±SD, SAPK2a(T106M)",[8],80±1%
same,"% of enzyme activity at 1 μM of compound 62±SD, JNK3",[9],21±2%
same,"% of enzyme activity at 1 μM of compound 62±SD, CDK2/cyclinA",[10],26±2%
same,"% of enzyme activity at 1 μM of compound 62±SD, CDK9/cyclin T1",[11],16±2%
same,"% of enzyme activity at 1 μM of compound 62±SD, SAPK2b",[12],98±1%
same,"% of enzyme activity at 1 μM of compound 62±SD, DYRK1A",[13],1±1%
same,"% of enzyme activity at 1 μM of compound 62±SD, GSK-3α",[14],0±0%
same,"% of enzyme activity at 1 μM of compound 62±SD, CDK4/cyclinD3",[15],83±5%
same,"% of enzyme activity at 1 μM of compound 62±SD, CDK7/cyclinH/ MAT1",[16],57±1%
same,"% of enzyme activity at 1 μM of compound 62±SD, MAPK2",[17],73±7%
